Article PMC7782168, “Synthesis, telomerase inhibitory and anticancer activity of new 2-phenyl-4H-chromone derivatives containing 1,3,4-oxadiazole moiety” (Journal of Enzyme Inhibition and Medicinal Chemistry, 2020)

Assays:
[1] = target: T1, telomerase (Homo sapiens, UniProt O14746); test: Telomerase activity assay using MGC-803 cells extract; format: biochemical; conditions: mean ± SD
T1 construct: assayed for telomerase activity using MGC-803 cells extract; endogenous in cells; host or cells: MGC-803 cell extract
T1 sequence (O14746 whole entry): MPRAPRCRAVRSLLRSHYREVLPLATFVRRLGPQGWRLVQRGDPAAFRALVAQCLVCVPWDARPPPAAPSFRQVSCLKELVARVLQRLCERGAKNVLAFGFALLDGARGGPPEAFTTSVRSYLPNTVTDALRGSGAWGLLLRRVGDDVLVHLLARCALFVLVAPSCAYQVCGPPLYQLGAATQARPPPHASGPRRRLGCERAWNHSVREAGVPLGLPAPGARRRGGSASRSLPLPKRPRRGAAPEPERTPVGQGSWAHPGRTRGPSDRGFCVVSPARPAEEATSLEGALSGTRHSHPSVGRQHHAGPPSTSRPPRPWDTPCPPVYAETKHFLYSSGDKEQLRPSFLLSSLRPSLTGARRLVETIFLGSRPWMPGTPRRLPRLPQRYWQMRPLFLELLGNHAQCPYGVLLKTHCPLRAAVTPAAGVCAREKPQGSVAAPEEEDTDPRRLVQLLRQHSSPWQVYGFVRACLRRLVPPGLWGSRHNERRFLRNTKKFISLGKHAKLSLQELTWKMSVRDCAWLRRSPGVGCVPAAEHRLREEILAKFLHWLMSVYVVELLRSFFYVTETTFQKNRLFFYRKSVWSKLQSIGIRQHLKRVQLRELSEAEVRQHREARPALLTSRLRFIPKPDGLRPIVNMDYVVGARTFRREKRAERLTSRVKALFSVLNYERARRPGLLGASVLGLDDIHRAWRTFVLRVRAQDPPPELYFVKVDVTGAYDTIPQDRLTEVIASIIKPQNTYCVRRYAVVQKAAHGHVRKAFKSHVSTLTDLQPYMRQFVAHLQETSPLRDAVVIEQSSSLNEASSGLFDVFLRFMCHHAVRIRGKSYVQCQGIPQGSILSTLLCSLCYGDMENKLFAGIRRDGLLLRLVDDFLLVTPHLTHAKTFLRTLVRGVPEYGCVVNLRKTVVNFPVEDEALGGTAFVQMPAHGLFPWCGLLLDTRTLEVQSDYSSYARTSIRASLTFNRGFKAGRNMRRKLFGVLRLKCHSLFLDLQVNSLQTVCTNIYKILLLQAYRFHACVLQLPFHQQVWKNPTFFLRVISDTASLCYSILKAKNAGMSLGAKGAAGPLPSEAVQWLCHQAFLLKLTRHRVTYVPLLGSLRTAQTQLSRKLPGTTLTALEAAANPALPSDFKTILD
T1 sequence (O60832 2-514 partner limits assumed): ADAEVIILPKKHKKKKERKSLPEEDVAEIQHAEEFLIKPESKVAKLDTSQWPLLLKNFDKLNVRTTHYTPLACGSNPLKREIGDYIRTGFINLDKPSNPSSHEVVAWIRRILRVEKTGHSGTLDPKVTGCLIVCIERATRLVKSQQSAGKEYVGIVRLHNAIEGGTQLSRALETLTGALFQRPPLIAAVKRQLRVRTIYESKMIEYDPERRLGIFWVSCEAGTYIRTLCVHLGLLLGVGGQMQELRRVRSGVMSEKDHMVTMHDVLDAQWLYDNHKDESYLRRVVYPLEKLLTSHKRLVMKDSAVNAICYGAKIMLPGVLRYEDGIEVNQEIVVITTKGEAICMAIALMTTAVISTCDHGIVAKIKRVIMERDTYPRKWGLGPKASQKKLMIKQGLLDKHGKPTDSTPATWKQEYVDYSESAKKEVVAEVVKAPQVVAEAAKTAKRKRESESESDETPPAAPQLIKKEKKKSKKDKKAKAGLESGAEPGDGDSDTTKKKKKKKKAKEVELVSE
T1 sequence (Q9NPE3 whole entry partner): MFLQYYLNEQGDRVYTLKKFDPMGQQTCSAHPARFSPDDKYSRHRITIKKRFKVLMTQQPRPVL
T1 sequence (Q9NX24 whole entry partner): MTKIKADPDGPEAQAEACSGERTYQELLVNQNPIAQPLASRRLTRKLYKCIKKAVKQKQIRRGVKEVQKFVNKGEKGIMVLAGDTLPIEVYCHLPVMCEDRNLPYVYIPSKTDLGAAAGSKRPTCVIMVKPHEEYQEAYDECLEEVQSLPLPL
T1 sequence (Q9NY12 whole entry partner): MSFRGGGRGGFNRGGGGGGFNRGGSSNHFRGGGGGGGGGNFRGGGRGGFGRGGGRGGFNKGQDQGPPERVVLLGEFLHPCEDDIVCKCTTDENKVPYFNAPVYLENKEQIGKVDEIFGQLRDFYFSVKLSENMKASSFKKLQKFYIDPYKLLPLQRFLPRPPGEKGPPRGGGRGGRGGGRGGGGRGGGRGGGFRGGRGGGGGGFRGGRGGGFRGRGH

COc1cc(OC)c2c(=O)c(OCC(=O)Nc3nnc(-c4cccc([N+](=O)[O-])c4)o3)c(-c3ccc(OC)c(OC)c3)oc2c1 [B14, 2–(2-(3,4-dimethoxyphenyl)-5,7-dimethoxy-4-oxo-4H-chromen-3-yloxy)-N-(5–(3-nitrophenyl)-1,3,4-oxadiazol-2-yl)acetamide]
melting point: 235 to 237 °C | IC50 [1]: 8.29 ± 1.33 µM

COc1cc(OC)c2c(=O)c(OCC(=O)Nc3nnc(-c4cccc(OCc5ccccc5)c4)o3)c(-c3cc(OC)c(OC)c(OC)c3)oc2c1 [A30, N-(5–(3-(benzyloxy)phenyl)-1,3,4-oxadiazol-2-yl)-2–(5,7-dimethoxy-4-oxo-2–(3,4,5-trimethoxyphenyl)-4H-chromen-3-yloxy)acetamide]
melting point: 188 to 190 °C | IC50 [1]: > 60 µM

COc1cc(OC)c2c(=O)c(OCC(=O)Nc3nnc(-c4ccccc4C(F)(F)F)o3)c(-c3cc(OC)c(OC)c(OC)c3)oc2c1 [A18, 2–(5,7-dimethoxy-4-oxo-2–(3,4,5-trimethoxyphenyl)-4H-chromen-3-yloxy)-N-(5–(2-(trifluoromethyl)phenyl)-1,3,4-oxadiazol-2-yl)acetamide]
melting point: 191 to 193 °C | IC50 [1]: 1.07 ± 0.2 µM

COc1cc(OC)c2c(=O)c(OCC(=O)Nc3nnc(-c4cccs4)o3)c(-c3ccc(OC)c(OC)c3)oc2c1 [B32, 2–(2-(3,4-dimethoxyphenyl)-5,7-dimethoxy-4-oxo-4H-chromen-3-yloxy)-N-(5-(thiophen-2-yl)-1,3,4-oxadiazol-2-yl)acetamide]
melting point: 238 to 240 °C | IC50 [1]: 3.75 ± 0.39 µM

COc1cccc(-c2nnc(NC(=O)COc3c(-c4ccc(OC)c(OC)c4)oc4cc(OC)cc(OC)c4c3=O)o2)c1 [B23, 2–(2-(3,4-dimethoxyphenyl)-5,7-dimethoxy-4-oxo-4H-chromen-3-yloxy)-N-(5–(3-methoxyphenyl)-1,3,4-oxadiazol-2-yl)acetamide]
melting point: 205 to 207 °C | IC50 [1]: 2.44 ± 0.42 µM

COc1cc(OC)c2c(=O)c(OCC(=O)Nc3nnc(-c4ccc(Cl)c(Cl)c4)o3)c(-c3cc(OC)c(OC)c(OC)c3)oc2c1 [A25, N-(5–(3,4-dichlorophenyl)-1,3,4-oxadiazol-2-yl)-2–(5,7-dimethoxy-4-oxo-2–(3,4,5-trimethoxyphenyl)-4H-chromen-3-yloxy)acetamide]
melting point: 222 to 224 °C | IC50 [1]: > 60 µM

COc1cc(OC)c2c(=O)c(OCC(=O)Nc3nnc(-c4ccccc4F)o3)c(-c3cc(OC)c(OC)c(OC)c3)oc2c1 [A4, 2–(5,7-dimethoxy-4-oxo-2–(3,4,5-trimethoxyphenyl)-4H-chromen-3-yloxy)-N-(5–(2-fluorophenyl)-1,3,4-oxadiazol-2-yl)acetamide]
melting point: 213 to 215 °C | IC50 [1]: 12.1 ± 2.01 µM

COc1cc(OC)c2c(=O)c(OCC(=O)Nc3nnc(-c4cccc([N+](=O)[O-])c4)o3)c(-c3cc(OC)c(OC)c(OC)c3)oc2c1 [A14, 2–(5,7-dimethoxy-4-oxo-2–(3,4,5-trimethoxyphenyl)-4H-chromen-3-yloxy)-N-(5–(3-nitrophenyl)-1,3,4-oxadiazol-2-yl)acetamide]
melting point: 233 to 235 °C | IC50 [1]: 4.11 ± 0.6 µM

COc1cc(OC)c2c(=O)c(OCC(=O)Nc3nnc(-c4ccc5c(c4)OCCO5)o3)c(-c3cc(OC)c(OC)c(OC)c3)oc2c1 [A29, N-(5–(2,3-dihydrobenzo[b][1, 4]dioxin-6-yl)-1,3,4-oxadiazol-2-yl)-2–(5,7-dimethoxy-4-oxo-2–(3,4,5-trimethoxyphenyl)-4H-chromen-3-yloxy)acetamide]
melting point: 231 to 233 °C | IC50 [1]: > 60 µM

COc1cc(OC)c2c(=O)c(OCC(=O)Nc3nnc(-c4ccc(C)cc4)o3)c(-c3cc(OC)c(OC)c(OC)c3)oc2c1 [A11, 2–(5,7-dimethoxy-4-oxo-2–(3,4,5-trimethoxyphenyl)-4H-chromen-3-yloxy)-N-(5-p-tolyl-1,3,4-oxadiazol-2-yl)acetamide]
melting point: 225 to 227 °C | IC50 [1]: 2.35 ± 0.48 µM

COc1cc(OC)c2c(=O)c(OCC(=O)Nc3nnc(-c4ccco4)o3)c(-c3cc(OC)c(OC)c(OC)c3)oc2c1 [A31, 2–(5,7-dimethoxy-4-oxo-2–(3,4,5-trimethoxyphenyl)-4H-chromen-3-yloxy)-N-(5-(furan-2-yl)-1,3,4-oxadiazol-2-yl)acetamide]
melting point: 240 to 242 °C | IC50 [1]: 2.75 ± 0.19 µM

COc1cc(OC)c2c(=O)c(OCC(=O)Nc3nnc(-c4ccc(Br)cc4)o3)c(-c3ccc(OC)c(OC)c3)oc2c1 [B8, N-(5–(4-bromophenyl)-1,3,4-oxadiazol-2-yl)-2–(2-(3,4-dimethoxyphenyl)-5,7-dimethoxy-4-oxo-4H-chromen-3-yloxy)acetamide]
melting point: 212 to 214 °C | IC50 [1]: 4.29 ± 0.83 µM

COc1cc(OC)c2c(=O)c(OCC(=O)Nc3nnc(-c4ccccc4F)o3)c(-c3ccc(OC)c(OC)c3)oc2c1 [B4, 2–(2-(3,4-dimethoxyphenyl)-5,7-dimethoxy-4-oxo-4H-chromen-3-yloxy)-N-(5–(2-fluorophenyl)-1,3,4-oxadiazol-2-yl)acetamide]
melting point: 235 to 237 °C | IC50 [1]: 15.3 ± 2.71 µM

COc1cc(OC)c2c(=O)c(OCC(=O)Nc3nnc(-c4ccc(Cl)cc4)o3)c(-c3ccc(OC)c(OC)c3)oc2c1 [B5, N-(5–(4-chlorophenyl)-1,3,4-oxadiazol-2-yl)-2–(2-(3,4-dimethoxyphenyl)-5,7-dimethoxy-4-oxo-4H-chromen-3-yloxy)acetamide]
melting point: 213 to 215 °C | IC50 [1]: 4.22 ± 0.62 µM

COc1cc(OC)c2c(=O)c(OCC(=O)Nc3nnc(-c4cccc5ccccc45)o3)c(-c3cc(OC)c(OC)c(OC)c3)oc2c1 [A28, 2–(5,7-dimethoxy-4-oxo-2–(3,4,5-trimethoxyphenyl)-4H-chromen-3-yloxy)-N-(5-(naphthalen-1-yl)-1,3,4-oxadiazol-2-yl)acetamide]
melting point: 238 to 240 °C | IC50 [1]: 6.17 ± 0.99 µM

COc1cc(OC)c2c(=O)c(OCC(=O)Nc3nnc(-c4ccc(F)c(Cl)c4)o3)c(-c3ccc(OC)c(OC)c3)oc2c1 [B24, N-(5–(3-chloro-4-fluorophenyl)-1,3,4-oxadiazol-2-yl)-2–(2-(3,4-dimethoxyphenyl)-5,7-dimethoxy-4-oxo-4H-chromen-3-yloxy)acetamide]
melting point: 232 to 234 °C | IC50 [1]: 4.17 ± 0.7 µM

COc1cc(OC)c2c(=O)c(OCC(=O)Nc3nnc(-c4cccc(OCc5ccccc5)c4)o3)c(-c3ccc(OC)c(OC)c3)oc2c1 [B30, N-(5–(3-(benzyloxy)phenyl)-1,3,4-oxadiazol-2-yl)-2–(2-(3,4-dimethoxyphenyl)-5,7-dimethoxy-4-oxo-4H-chromen-3-yloxy)acetamide]
melting point: 156 to 158 °C | IC50 [1]: > 60 µM

COc1cc(OC)c2c(=O)c(OCC(=O)Nc3nnc(-c4cccc(Br)c4)o3)c(-c3cc(OC)c(OC)c(OC)c3)oc2c1 [A9, N-(5–(3-bromophenyl)-1,3,4-oxadiazol-2-yl)-2–(5,7-dimethoxy-4-oxo-2–(3,4,5-trimethoxyphenyl)-4H-chromen-3-yloxy)acetamide]
melting point: 202 to 204 °C | IC50 [1]: 2.01 ± 0.39 µM

COc1cccc(-c2nnc(NC(=O)COc3c(-c4cc(OC)c(OC)c(OC)c4)oc4cc(OC)cc(OC)c4c3=O)o2)c1 [A23, 2–(5,7-dimethoxy-4-oxo-2–(3,4,5-trimethoxyphenyl)-4H-chromen-3-yloxy)-N-(5–(3-methoxyphenyl)-1,3,4-oxadiazol-2-yl)acetamide]
melting point: 208 to 210 °C | IC50 [1]: 1.9 ± 0.42 µM
